Measured values: ChEMBL document CHEMBL1275440, “In vitro activity of telavancin against resistant gram-positive bacteria” (2008)
Values after ≈ are worked out from the molar mass of the structure shown. Active and inactive are the calls of the source. The calls are words filed in the database; no cut-off is given here.

How the values were obtained:
Assay type in all cases: functional
[1] = tested on: Staphylococcus saprophyticus; experiment: Antibacterial activity against methicillin resistant coagulase-negative Staphylococcus saprophyticus clinical isolate by broth microdilution method
[2] = tested on: Staphylococcus epidermidis; experiment: Antibacterial activity against methicillin resistant Staphylococcus epidermidis ATCC 35984 assessed as bacterial count at 16 ug/ml after 2 hrs by time-kill assay
Streptococcus pyogenes [3] = experiment: Antibacterial activity against Streptococcus pyogenes MED 2040 assessed as bacterial count at […] after 8 hrs by time-kill assay
Staphylococcus aureus [4] = experiment: Antibacterial activity against methicillin resistant Staphylococcus aureus MED 2028 osteomyelitis isolate assessed as bacterial count at 4 ug/ml after 8 hrs by time-kill assay
Streptococcus pyogenes [5] = experiment: Antibacterial activity against Streptococcus pyogenes MED 2040 assessed as bacterial count at […] after 24 hrs by time-kill assay
Staphylococcus aureus [6] = experiment: Antibacterial activity against methicillin resistant Staphylococcus aureus MED 1805 bloodstream isolate assessed as bacterial count at 1 ug/ml after 24 hrs by time-kill assay
[7] = tested on: Staphylococcus epidermidis; experiment: Antibacterial activity against methicillin resistant Staphylococcus epidermidis ATCC 35984 assessed as bacterial count at 16 ug/ml after 8 hrs by time-kill assay
Streptococcus pneumoniae [8] = experiment: Antibacterial activity against multidrug-resistant Streptococcus pneumoniae clinical isolate by broth microdilution method
Streptococcus pneumoniae [9] = experiment: Antibacterial activity against multidrug resistant Streptococcus pneumoniae MED 1090 assessed as bacterial count at […] after 8 hrs by time-kill assay
Streptococcus agalactiae [10] = experiment: Antibacterial activity against Streptococcus agalactiae MED 2038 assessed as bacterial count at […] after 4 hrs by time-kill assay
Staphylococcus aureus [11] = experiment: Antibacterial activity against methicillin resistant Staphylococcus aureus MED 1805 bloodstream isolate assessed as bacterial count at 16 ug/ml after 24 hrs by time-kill assay
Streptococcus agalactiae [12] = experiment: Antibacterial activity against Streptococcus agalactiae MED 2038 assessed as bacterial count at 0.5 ug/ml after 8 hrs by time-kill assay
[13] = tested on: Staphylococcus epidermidis; experiment: Antibacterial activity against methicillin resistant Staphylococcus epidermidis ATCC 35984 assessed as bacterial count at 8 ug/ml after 2 hrs by time-kill assay
Enterococcus faecalis [14] = experiment: Antibacterial activity against Enterococcus faecalis ATCC 51575 assessed as bacterial count at 2 ug/ml after 24 hrs by time-kill assay
Streptococcus pyogenes [15] = experiment: (§1) Antibacterial activity against Streptococcus pyogenes MED 2040 assessed as bacterial count at […] after 4 hrs by time-kill assay
Streptococcus pneumoniae [16] = experiment: Antibacterial activity against multidrug resistant Streptococcus pneumoniae MED 1090 assessed as bacterial count at 0.06 ug/ml after 24 hrs by time-kill assay
Streptococcus pyogenes [17] = experiment: Antibacterial activity against Streptococcus pyogenes MED 2040 assessed as bacterial count at 2 ug/ml after 2 hrs by time-kill assay
Streptococcus pneumoniae [18] = experiment: Antibacterial activity against multidrug resistant Streptococcus pneumoniae MED 1090 assessed as bacterial count at 2 ug/ml after 4 hrs by time-kill assay
Streptococcus pneumoniae [19] = experiment: Antibacterial activity against multidrug resistant Streptococcus pneumoniae MED 1090 assessed as bacterial count at 2 ug/ml after 2 hrs by time-kill assay
Streptococcus agalactiae [20] = experiment: Antibacterial activity against Streptococcus agalactiae MED 2038 assessed as bacterial count at 2 ug/ml after 4 hrs by time-kill assay
Streptococcus pneumoniae [21] = experiment: Antibacterial activity against multidrug resistant Streptococcus pneumoniae MED 1090 assessed as bacterial count at 0.03 ug/ml after 4 hrs by time-kill assay
Streptococcus pneumoniae [22] = experiment: Antibacterial activity against multidrug resistant Streptococcus pneumoniae MED 1090 assessed as bacterial count at 0.03 ug/ml after 2 hrs by time-kill assay
Staphylococcus aureus [23] = experiment: Antibacterial activity against methicillin resistant Staphylococcus aureus MED 2028 osteomyelitis isolate assessed as bacterial count at 4 ug/ml after 4 hrs by time-kill assay
Enterococcus faecalis [24] = experiment: Antibacterial activity against vancomycin resistant Enterococcus faecalis VanB clinical isolate by broth microdilution method
Streptococcus pyogenes [25] = experiment: Antibacterial activity against Streptococcus pyogenes MED 2040 assessed as bacterial count at 0.5 ug/ml after 8 hrs by time-kill assay
Enterococcus faecium = experiment: Antibacterial activity against vancomycin resistant Enterococcus faecium VanA clinical isolate by broth microdilution method
Streptococcus pneumoniae [26] = experiment: Antibacterial activity against multidrug resistant Streptococcus pneumoniae MED 1090 assessed as bacterial count at 8 ug/ml after 8 hrs by time-kill assay
Streptococcus pyogenes [27] = experiment: Antibacterial activity against Streptococcus pyogenes MED 2040 assessed as bacterial count at 0.5 ug/ml after 2 hrs by time-kill assay
Streptococcus pneumoniae [28] = experiment: Antibacterial activity against multidrug resistant Streptococcus pneumoniae MED 1090 assessed as bacterial count at 8 ug/ml after 2 hrs by time-kill assay
Streptococcus agalactiae [29] = experiment: Antibacterial activity against Streptococcus agalactiae MED 2038 assessed as bacterial count at 0.5 ug/ml after 2 hrs by time-kill assay
Staphylococcus aureus [30] = experiment: Antibacterial activity against methicillin resistant Staphylococcus aureus MED 1805 bloodstream isolate assessed as bacterial count at 1 ug/ml after 2 hrs by time-kill assay
Enterococcus faecalis [31] = experiment: Antibacterial activity against vancomycin resistant Enterococcus faecalis VanA clinical isolate by broth microdilution method
Streptococcus pyogenes [32] = experiment: Antibacterial activity against Streptococcus pyogenes group A clinical isolate by broth microdilution method
Staphylococcus aureus [33] = experiment: Antibacterial activity against methicillin resistant Staphylococcus aureus clinical isolate assessed as susceptibility level by broth microdilution method
Streptococcus pyogenes [34] = experiment: as §1; remark: listed apart in the source
[35] = tested on: Streptococcus constellatus; experiment: Antibacterial activity against Streptococcus constellatus clinical isolate by broth microdilution method
Staphylococcus aureus [36] = experiment: Antibacterial activity against methicillin resistant Staphylococcus aureus MED 1805 bloodstream isolate assessed as bacterial count at 1 ug/ml after 8 hrs by time-kill assay
[37] = tested on: Staphylococcus epidermidis; experiment: Antibacterial activity against methicillin resistant Staphylococcus epidermidis ATCC 35984 assessed as bacterial count at 2 ug/ml after 4 hrs by time-kill assay
Streptococcus agalactiae [38] = experiment: Antibacterial activity against Streptococcus agalactiae MED 2038 assessed as bacterial count at 0.5 ug/ml after 24 hrs by time-kill assay
Enterococcus faecalis [39] = experiment: Antibacterial activity against Enterococcus faecalis ATCC 51575 assessed as bacterial count at 4 ug/ml after 8 hrs by time-kill assay
Streptococcus agalactiae [40] = experiment: Antibacterial activity against Streptococcus agalactiae MED 2038 assessed as bacterial count at […] after 2 hrs by time-kill assay
[41] = tested on: Staphylococcus epidermidis; experiment: Antibacterial activity against methicillin resistant Staphylococcus epidermidis ATCC 35984 assessed as bacterial count at 4 ug/ml after 24 hrs by time-kill assay
Streptococcus agalactiae [42] = experiment: Antibacterial activity against Streptococcus agalactiae MED 2038 assessed as bacterial count at 2 ug/ml after 2 hrs by time-kill assay
Enterococcus faecalis [43] = experiment: Antibacterial activity against Enterococcus faecalis ATCC 51575 assessed as bacterial count at 8 ug/ml after 4 hrs by time-kill assay

Which results are given for `CCCCCCCCCCNCCN[C@@]1(C)C[C@H](O[C@H]2[C@H](Oc3c4cc5cc3Oc3ccc(cc3Cl)[C@@H](O)[C@@H](NC(=O)[C@@H](CC(C)C)NC)C(=O)N[C@@H](CC(N)=O)C(=O)N[C@H]5C(=O)N[C@H]3C(=O)N[C@H](C(=O)N[C@H](C(=O)O)c5cc(O)c(CNCP(=O)(O)O)c(O)c5-c5cc3ccc5O)[C@H](O)c3ccc(c(Cl)c3)O4)O[C@H](CO)[C@@H](O)[C@@H]2O)O[C@@H](C)[C@H]1O` [TELAVANCIN]?
MIC50 [1]: 0.5 µg/mL (≈ 0.285 µM); MIC90 [1]: 1 µg/mL (≈ 0.57 µM); log10CFU/ml [2]: 0.5; log10CFU/ml (Streptococcus pyogenes [3]): 2.5; log10CFU/ml (Staphylococcus aureus [4]): 3.4; log10CFU/ml (Streptococcus pyogenes [5]): 2.2; log10CFU/ml (Staphylococcus aureus [6]): 2.7; log10CFU/ml [7]: 3.3; MIC50 (Streptococcus pneumoniae [8]): 0.015 µg/mL (≈ 0.00854 µM); MIC90 (Streptococcus pneumoniae [8]): 0.03 µg/mL (≈ 0.0171 µM); log10CFU/ml (Streptococcus pneumoniae [9]): 3.3; log10CFU/ml (Streptococcus agalactiae [10]): 0.9; log10CFU/ml (Staphylococcus aureus [11]): 3.3; log10CFU/ml (Streptococcus agalactiae [12]): 1.6; log10CFU/ml [13]: 0.5; log10CFU/ml (Enterococcus faecalis [14]): 0.8; log10CFU/ml (Streptococcus pyogenes [15]): 1.8; log10CFU/ml (Streptococcus pneumoniae [16]): 3.4; log10CFU/ml (Streptococcus pyogenes [17]): 1.8; log10CFU/ml (Streptococcus pneumoniae [18]): 3; log10CFU/ml (Streptococcus pneumoniae [19]): 1.8; log10CFU/ml (Streptococcus agalactiae [20]): 0.8; log10CFU/ml (Streptococcus pneumoniae [21]): 2.7; log10CFU/ml (Streptococcus pneumoniae [22]): 1.1; log10CFU/ml (Staphylococcus aureus [23]): 1.7; MIC (Enterococcus faecalis [24]): 0.25 µg/mL (≈ 0.142 µM); log10CFU/ml (Streptococcus pyogenes [25]): 2.3; MIC50 (Enterococcus faecium): 8 µg/mL (≈ 4.56 µM); MIC90 (Enterococcus faecium): 16 µg/mL (≈ 9.11 µM); log10CFU/ml (Streptococcus pneumoniae [26]): 2.6; log10CFU/ml (Streptococcus pyogenes [27]): 0.9; log10CFU/ml (Streptococcus pneumoniae [28]): 1.2; log10CFU/ml (Streptococcus agalactiae [29]): 0.87; log10CFU/ml (Staphylococcus aureus [30]): 0.9; MIC50 (Enterococcus faecalis [31]): 8 µg/mL (≈ 4.56 µM); MIC90 (Enterococcus faecalis [31]): 16 µg/mL (≈ 9.11 µM); MIC50 (Streptococcus pyogenes [32]): 0.03 µg/mL (≈ 0.0171 µM); MIC90 (Streptococcus pyogenes [32]): 0.06 µg/mL (≈ 0.0342 µM); Activity (Staphylococcus aureus [33]): 100%; log10CFU/ml (Streptococcus pyogenes [34]): 0.4; MIC [35]: 0.015 µg/mL (≈ 0.00854 µM); MIC50 [35]: inactive; MIC90 [35]: inactive; log10CFU/ml (Staphylococcus aureus [36]): 3.2; log10CFU/ml [37]: 0.03; log10CFU/ml (Streptococcus agalactiae [38]): 3.6; log10CFU/ml (Enterococcus faecalis [39]): 0.7; log10CFU/ml (Streptococcus agalactiae [40]): 1; log10CFU/ml [41]: 3.3; log10CFU/ml (Streptococcus agalactiae [42]): 0.8; log10CFU/ml (Enterococcus faecalis [43]): 0.2
